How the values were obtained:
[1] = system: stripped skin on the backs of volunteers; test: vasoconstriction test (topical anti-inflammatory activity on stripped, hyperemic skin); format: in vivo; conditions: for vasoconstriction, colour value (normal skin = 100, untreated stripped skin = 0): 50 mg topical; for activity in vasoconstriction test compared with hydroxyphenylbutazone: topical, Table I, in words
Method: The topical anti-inflammatory activity of the novel hydroxyphenylbutazone derivatives can be determined employing the conventional vasoconstriction test as follows: On the backs of volunteers for the experiment, the stratum corneum was abraded by the application and tearing off of adhesive tape, conducted 20 times at the same spot, thus producing a pronounced hyperemia. Within the stripped area, respectively 50 mg of ointment containing in each case 0.1% and 0.01%, respectively, of the substance to be tested or of the reference substance in a water-oil base was applied on marked areas. The extent of the vasoconstriction was determined one, four, and eight hours after application. In order to evaluate the vasoconstriction, which is a representative syndrome of topical anti-inflammatory activity the color values of the untreated stripped skin and the treated stripped skin were determined and compred with the color value of the normal skin, wherein the color value of the normal skin was set to be equal to 100 and the color value of the untreated stripped skin was fixed at 0. Minor, moderate, and high-grade vasoconstriction was evaluated with values between 0 and 100. The results are shown in Table I below in which two compounds of this invention (III, IV) were compated with hydroxyphenylbutazone (I) and fluorocortolone.

[2] = system: right ear of male rats (edema); test: Edema test, Tonelli method (croton oil ear edema); format: in vivo; conditions: in pyridine/water/ether/croton oil irritant, 3 hours after application
Method: The anti-inflammatory activity of the novel hydroxyphenylbutazone derivatives upon topical application can also be determined in accordance with the Tonelli method, as follows:
The compound to be tested is dissolved in an irritant consisting of 4 parts of pyridine, 1 part of distilled water, 5 parts of ether, and 10 parts of a 4% ether croton oil solution. Felt strips attached to the insides of a slide tweezers are saturated with this text solution and pressed under slight pressure for 15 seconds onto the right ear of male rats weighing 100-160 g.
The left ear remains untreated and serves as control. Three hours after application, the animals are sacrificed and disks of a size of 9 mm. are punched out of their ears. The weight difference between the disk from the right ear and that of the left ear is a measure for the thus-formed edema.
The concentrations of effective agent (ED50) are determined which, when employed, cause a 50% reduction in the formation of edema.

Row | SMILES | vasoconstriction, colour value (normal skin = 100, untreated stripped skin = 0) ([1]; 0.01% ointment, 1 hour) | vasoconstriction, colour value (normal skin = 100, untreated stripped skin = 0) ([1]; 0.01% ointment, 4 hours) | vasoconstriction, colour value (normal skin = 100, untreated stripped skin = 0) ([1]; 0.01% ointment, 8 hours) | vasoconstriction, colour value (normal skin = 100, untreated stripped skin = 0) ([1]; 0.1% ointment, 1 hour) | vasoconstriction, colour value (normal skin = 100, untreated stripped skin = 0) ([1]; 0.1% ointment, 4 hours) | vasoconstriction, colour value (normal skin = 100, untreated stripped skin = 0) ([1]; 0.1% ointment, 8 hours) | ED50 (concentration causing 50% reduction in the formation of edema) [2] | activity in vasoconstriction test compared with hydroxyphenylbutazone [1]
1 | CCCCC1C(=O)N(c2ccccc2)N(c2ccc(O)cc2)C1=O (stereo not shown) [I, 4-Butyl-1-(4-hydroxyphenyl)-2-phenyl-3,5-pyrazolidinedione] | 18 | 25 | 24 | 15 | 35 | 33 | 8000 µg/mL | 
2 | C[C@@H]1C[C@H]2[C@@H]3C[C@H](F)C4=CC(=O)C=C[C@]4(C)[C@H]3[C@@H](O)C[C@]2(C)[C@H]1C(=O)CO [II, 6α-Fluoro-11β,21-dihydroxy-16α-methyl-1,4-pregnadiene-3,20-dione] | 15 | 65 | 85 | 35 | 75 | 85 | 3400 µg/mL | 
3 | CCCCC1C(=O)N(c2ccccc2)N(c2ccc(OC(=O)CCCCC(=O)Oc3ccc(N4C(=O)C(CCCC)C(=O)N4c4ccccc4)cc3)cc2)C1=O (stereo not shown) [III, Adipic Acid Bis[4-(4-butyl-3,5-dioxo-2-phenylpyrazolidinyl)-phenyl Ester]] | 34 | 66 | 70 | 44 | 72 | 78 | 2100 µg/mL | substantially more active than hydroxyphenylbutazone
4 | CCCCC1C(=O)N(c2ccccc2)N(c2ccc(OC(=O)CCCCCC(=O)Oc3ccc(N4C(=O)C(CCCC)C(=O)N4c4ccccc4)cc3)cc2)C1=O (stereo not shown) [IV, Pimelic Acid Bis[4-(4-butyl-3,5-dioxo-2-phenylpyrazolidinyl)-phenyl Ester]] |  | 44 | 49 |  | 65 | 67 | 4200 µg/mL | substantially more active than hydroxyphenylbutazone

From patent publication US3968219A, “Hydroxy phenylbutazone derivatives and their preparation” (Schering Aktiengesellschaft, priority 1974, dated 1976)
